Source: patent US20230321043A1, “COMPOUNDS HAVING PSEUDOMONAS ANTI-BIOFILM PROPERTIES” (Københavns Universitet, priority 2020, published 2023)

What was measured:
[1] = tested on: PA01(wspF)::araC-PBAD-bifA+; test: biofilm formation with arabinose inducible bifA expression; type: cell-based, Pseudomonas aeruginosa; conditions: 6 to 100 μM with 0.05% or 0.2% arabinose, 18 hours, FIG. 6C
Protocol: Using a 96 well microtiter platform, overnight cultures of the strains were diluted 200 fold into 100 uL ABTrace media aliquots (Pamp and Tolker-Nielsen, 2007) supplemented with 0.2% glucose, 0.5% casa amino acids, 1 μM FeCl3, 1% DMSO and varying concentrations of arabinose and H6-335-P1.
The resulting microtiter plates were sealed with air permeable lids and biofilm cultures were grown at 37° C. on a rotary shaker (280 RPM) for 18 hours, after which the culture supernatants were discarded and biofilm present in the wells were quantified by crystal violet staining (Groizeleau et al., 2016).
Finally, biofilm prevailing following treatment with varying concentrations of arabinose and H6-335-P1 were plotted. The amounts of supplemented arabinose (0% A, 0.05% A or 0.2% A) and H6-335-P1 (100 μM, 50 μM, 25 μM, 12 μM, 6 μM or 0 μM) are indicated below the X-axis of FIG. 6C. Numbers above the bars in FIG. 6 represents the crystal violet measurements.

Pseudomonas putida = test: biofilm formation, crystal violet, host range; type: cell-based; conditions: 100 μM, 8 hours, FIG. 11
Protocol: (§1) To determine the host range of H6-335-P1, the inventors conducted a Blast search for analogs of the P. aeruginosa BifA phosphodiesterase protein encoded by gene PA4367 (bifA).
(§2) Briefly, the experiment presented in FIG. 11 were carried out in 96 well microtiter plates as follows. 20 hours old cultures of either P. aeruginosa, P. putida or P. flourescens were diluted 1000 fold into 100 μL aliquots of ABtrace media supplemented with 0.5% Cas amino acids, 0.2% glucose, 1 μM FeCl3, 0.2% DMSO and either 100 μM H6-335-P1 or none H6-335-P1. The resulting microtiter plate were sealed with an air permeable lid and the cultures were incubated at 37° C. on rotary shaker at 160 RPM. Following 8 hours of growth the culture supernatants were discarded and the amount of biofilm present in each well were quantified by the use of crystal violet staining. Finally, the obtained values of crystal violet (biofilm material) were plotted as a function of strain and the presence of 100 μM H6-335-P1 or absence of H6-335-P1. In FIG. 11 means and standard deviations (bars) represents 4 biological replicates (n=4).

Pseudomonas flourescens = test: biofilm formation, crystal violet, host range; type: cell-based; conditions: 100 μM, 8 hours, FIG. 11
Protocol: as §1, §2

[2] = tested on: P. aeruginosa ΔbifAΔwspFΔpelΔpsl/pCdrA-gfp; test: c-di-GMP monitor read-out in bifA knockout; type: cell-based, Pseudomonas aeruginosa; conditions: 100 μM, 18 hours of cultivation, FIG. 6B right
Protocol: This experiment was done using a 96 well microtiter format where 20 hour old cultures of the P. aeruginosa ΔwspFΔpelΔpsl/pCdrA-gfp c-di-GMP monitor strain and the P. aeruginosa ΔbifAΔwspFΔpelΔpsl/pCdrA-gfp c-di-GMP monitor strain were diluted 100 fold into 100 μL ABTrace media aliquots supplemented with 0.2% glucose, 0.5% casamino acids, 1 μM FeCl3, 60 μg/mL of gentamicin, 1% DMSO and either 100 μM or 0 μM of H6-335-P1. The resulting microtitter was incubated at 37° C. and 440 RPM in a Tecan reader, and corresponding values of GFP fluorescence (FU) and cell density (OD600) was measured every 20 minutes for 24 hours.

Enterobacter cloacae = test: biofilm formation / dispersal, host range; type: cell-based; conditions: data not shown
Description: as §1

[3] = tested on: Stenotrophomonas maltophilia; test: biofilm formation / dispersal, host range; type: cell-based; conditions: data not shown
Description: as §1

Burkholderia cenocepacia = test: biofilm formation / dispersal, host range; type: cell-based; conditions: data not shown
Description: as §1

Acinetobacter baumanii = test: biofilm formation / dispersal, host range; type: cell-based; conditions: data not shown
Description: as §1

[4] = tested on: P. aeruginosa ΔwspFΔpelΔpsl; test: growth (OD600) of treated cultures; type: cell-based, Pseudomonas aeruginosa; conditions: 0 to 100 μM, 24 hours, FIG. 3B
Protocol: Specifically, a 20 h old culture of P. aeruginosa ΔwspF,Δpsl,Δpel (Rybtke et al 2012) was diluted 100 fold into 25 mL aliquots of ABtrace media supplemented with 0.5% Cas amino acids, 0.2% glucose, 60 μg/mL of gentamicin, 1 μM FeCl3, 0.05% DMSO and either 100 μM H6-335-P1, 100 μM H6-335 or no compound as reference control. Acting as a positive control for low total cellular c-di-GMP content, a 20 hour old culture of strain P. aeruginosa ΔwspF,Δpsl,Δpel carrying plasmid pYhj::Gm (encoding a constitutively expressed YhjH phosphodiesterase) was also diluted 100 fold into 25 mL of ABtrace medium supplemented with 0.5% Cas amino acids, 0.2% glucose, 60 μg/mL of gentamicin, 1 μM FeCl3 and 0.05% DMSO. The 4 cultures were placed on a rotary shaker and following 8 hours of growth at 37° C. and 200 RPM culture samples for c-di-GMP extraction and protein quantification was collected from each of the 4 different cultures. C-di-GMP extracts were prepared and subsequently quantified by HPLC coupled tandem-MS analysis as previously described (Groizeleau et al., 2016), while protein quantification was carried out using the Pierce 660 nm Protein Assay (Thermo Scientific Cat. No 22660) according to the manufacturer's protocol. […]

Structure (SMILES): N=C1NN=C(N)/C1=N/Nc1ccccc1F [H6-335-P1, 4-[(2-fluorophenyl) hydrazinylidene]pyrazole-3,5-diamine]
- inhibition of biofilm formation in arabinose stimulated (bifA induced) cultures [1]: synergistic inhibitory effect on biofilm formation
- biofilm formation of Pseudomonas putida (Pseudomonas putida): significantly less biofilm
- biofilm formation of Pseudomonas flourescens (Pseudomonas flourescens): significantly less biofilm
- fluorescent read-out of ΔbifA c-di-GMP monitor strain [2]: completely unaffected
- biofilm formation of Enterobacter cloacae (Enterobacter cloacae): failed to reduce biofilm formation
- biofilm formation of Stenotrophomonas maltophilia [3]: failed to reduce biofilm formation
- biofilm formation of Burkholderia cenocepacia (Burkholderia cenocepacia): failed to reduce biofilm formation
- biofilm formation of Acinetobacter baumanii (Acinetobacter baumanii): failed to reduce biofilm formation
- effect on growth (OD600) [4]: does not inhibit growth
